# Data from PubChem BioAssay (NCI).
#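 Step 1: Grow cells in 96-well plates. Step 2: Expose to compound for 48 hours at 5 concentrations. Step 3: Interpolate endpoints linearly; if unreached, use highest concentration. At the GI50, growth is halved. TGI marks complete inhibition of growth.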
# Assays:
# Test in all cases: inhibition of tumour cell growth, NCI panel, 48 h
# EKVX NSCLC = test system: EKVX NSCLC
# IGROV1 ovarian = test system: IGROV1 ovarian
# M19-MEL melanoma = test system: M19-MEL melanoma
# NCI-H23 lung = test system: NCI-H23 lung
# SF-268 CNS = test system: SF-268 CNS
# SNB-19 CNS = test system: SNB-19 CNS
# SNB-78 CNS = test system: SNB-78 CNS
# XF 498 CNS = test system: XF 498 CNS
# A498 renal = test system: A498 renal
# HCT-116 colon = test system: HCT-116 colon
# NCI/ADR-RES ovarian = test system: NCI/ADR-RES ovarian
Structure (SMILES),TGI (EKVX NSCLC),TGI (IGROV1 ovarian),TGI (M19-MEL melanoma),TGI (NCI-H23 lung),TGI (SF-268 CNS),TGI (SNB-19 CNS),TGI (SNB-78 CNS),TGI (XF 498 CNS),GI50 (A498 renal),TGI (A498 renal),GI50 (EKVX NSCLC),GI50 (HCT-116 colon),TGI (HCT-116 colon),GI50 (IGROV1 ovarian),GI50 (NCI-H23 lung),GI50 (NCI/ADR-RES ovarian),TGI (NCI/ADR-RES ovarian),GI50 (SF-268 CNS),GI50 (SNB-19 CNS)
Cc1cc2c(c(C(=O)O)c1C)-c1cccc(Cl)c1C2=O,> 100 µM,> 100 µM,> 100 µM,> 100 µM,> 100 µM,> 100 µM,> 100 µM,> 100 µM,–,–,–,–,–,–,–,–,–,–,–
Cn1c(COC(=O)NCCn2ccnc2)nc2c(N3CCOCC3)nc(-c3ccccc3)nc21,2.65 µM,1.94 µM,–,3.08 µM,2.66 µM,2.69 µM,–,–,1.25 µM,2.53 µM,1.26 µM,0.136 µM,0.351 µM,0.657 µM,1.52 µM,1.54 µM,5.09 µM,1.29 µM,1.38 µM
CC1=NN(c2cccc(Cl)c2)C(=O)/C1=C\c1cn(CC(O)CN2CCCCC2)c2ccccc12 (stereo not given),25.9 µM,14.6 µM,–,32.4 µM,24.9 µM,53.7 µM,–,–,14.6 µM,41.6 µM,11.1 µM,1.74 µM,3.35 µM,2.99 µM,12.4 µM,4.79 µM,20.7 µM,10.1 µM,16.8 µM
CC(=O)N1[C@H](C(=O)O)CS[C@H]1c1ccc(F)cc1,–,> 100 µM,> 100 µM,> 100 µM,> 100 µM,> 100 µM,> 100 µM,–,–,> 100 µM,–,–,78.7 µM,–,–,–,–,–,–
Oc1ccc(Cl)cc1C=Nc1cnc2ccccc2c1,> 86 µM,> 100 µM,–,> 100 µM,> 100 µM,> 100 µM,–,–,–,> 100 µM,–,–,> 100 µM,–,–,–,> 100 µM,–,–
COC1=CC(c2ccc[nH]2)=N/C1=C\c1[nH]c(C)c(C(=O)CCCCCCCCC(=O)O[C@H]2CC[C@H]3C4CCc5cc(O)ccc5C4CC[C@]23C)c1C (stereo not given in full),> 50 µM,> 50 µM,–,> 50 µM,> 50 µM,> 50 µM,–,–,1.28 µM,> 43.8 µM,0.461 µM,0.159 µM,> 22.1 µM,1.06 µM,1.85 µM,25.9 µM,> 50 µM,0.429 µM,3.16 µM
O=C(Nc1n[nH]c2cc(-c3cc(F)ccc3F)ccc12)C1CC1,> 25 µM,> 25 µM,–,> 25 µM,> 25 µM,> 25 µM,–,–,> 25 µM,> 25 µM,> 22.3 µM,9.78 µM,> 25 µM,> 25 µM,14.2 µM,9.31 µM,> 25 µM,19.5 µM,> 25 µM
CC(C)(C)C[C@H]1N[C@@H](C(=O)NC2CCC(O)CC2)[C@H](c2cccc(Cl)c2F)[C@@]12C(=O)Nc1cc(Cl)ccc12 (stereo not given in full),14.2 µM,16.7 µM,–,29.2 µM,25.8 µM,21.3 µM,–,–,1.11 µM,10.3 µM,3.15 µM,0.41 µM,11.9 µM,2.07 µM,11.1 µM,14 µM,33.9 µM,12 µM,5.93 µM
C=C1C(=O)O[C@@H]2/C=C(/C)[C@@H](OC(C)=O)C/C=C(\C)C(O)[C@@H](OC(=O)/C(C)=C\C)C12 (stereo not given in full),> 100 µM,> 100 µM,–,> 100 µM,> 100 µM,> 100 µM,–,–,–,> 100 µM,–,–,29.8 µM,–,–,–,76.5 µM,–,–
Cc1cccc(C2NC(=O)c3ccccc3N2)c1 (stereo not given),> 100 µM,> 100 µM,–,> 54.7 µM,> 100 µM,> 100 µM,–,–,–,> 73.4 µM,–,–,> 100 µM,–,–,–,> 47.2 µM,–,–
COc1ccc(-c2ccc(CC(=O)O)cc2)cc1OC,> 100 µM,–,> 100 µM,> 100 µM,> 100 µM,> 100 µM,> 100 µM,> 100 µM,–,> 100 µM,–,–,> 100 µM,–,–,–,–,–,–
CCCCCCCC(=O)OCC/C=C/C1OC1C1OC(=O)/C=C\C=C\C(=O)N(C(C)=O)C(=O)/C=C(/C)CCC2OC2C1OC(=O)NC(C)=O (stereo not given),> 25 µM,8.28 µM,–,12.8 µM,12.1 µM,> 25 µM,–,–,22.6 µM,> 25 µM,> 25 µM,1.8 µM,4.97 µM,3.21 µM,5.07 µM,> 25 µM,> 25 µM,4.6 µM,> 25 µM
CC(=O)Nc1ccc(C2CC(c3ccc([N+](=O)[O-])cc3)=Nc3ccccc3S2)cc1 (stereo not given),> 100 µM,67.2 µM,45.6 µM,–,77.9 µM,62.4 µM,> 100 µM,27 µM,–,33.3 µM,–,–,25.1 µM,–,–,–,–,–,–
COc1ccc(-n2cc(-c3ccc(OC)c(OC)c3)[nH]c2=O)cc1,> 100 µM,> 100 µM,–,> 100 µM,> 100 µM,> 100 µM,–,–,> 100 µM,> 100 µM,> 100 µM,> 100 µM,> 100 µM,> 100 µM,> 100 µM,> 100 µM,> 100 µM,> 100 µM,> 100 µM
Cn1c(I)c(C#C[Si](C)(C)C)c(=O)n(C(=O)c2ccccc2)c1=O,21.2 µM,3.45 µM,–,27.8 µM,10.2 µM,31.8 µM,–,–,10.9 µM,24.3 µM,6.06 µM,1.74 µM,3.44 µM,1.74 µM,8.28 µM,22.4 µM,48.8 µM,3.22 µM,15.5 µM
CN(C)C(=S)/N=c1\ss/c(=N\C(=S)N(C)C)n1-c1cccc(Cl)c1,> 100 µM,> 100 µM,–,> 100 µM,> 100 µM,> 100 µM,> 100 µM,–,–,> 100 µM,–,–,> 100 µM,–,–,–,–,–,–
Cc1ccc(/C(=N/Nc2ccc([N+](=O)[O-])cc2)Sc2cc(Cl)c(C)cc2S(N)(=O)=O)cc1,9.12 µM,14.6 µM,–,3.59 µM,7.37 µM,> 20.5 µM,–,–,1.87 µM,4.55 µM,3.14 µM,1.13 µM,2.34 µM,2.44 µM,1.64 µM,2.03 µM,4.91 µM,1.91 µM,2.5 µM
